Laboratory results from patent US12059422B2 (MEI Pharma, Inc., priority 2011, dated 2024).

Key:
[1] = molecular target: T1, PI3K gamma (Homo sapiens, UniProt P48736); assay: Luciferase-based luminescence assay (ADP Glo), PI3K gamma enzymatic activity; type: biochemical; conditions: inhibition of enzymatic activity, 25 μM ATP, read-out: IC50 p110γ
T1 construct: purchased Invitrogen Corp., Carlsbad, CA, USA
Method: (§1) PI3K catalyzes the conversion of phosphatidylinositol-4,5-bisphosphate (PIP2) and ATP to phosphatidylinositol-3,4,5-trisphosphate (PIP3) and ADP. For all assays, the reaction buffer comprised 50 mM HEPES, pH 7.5, 3 mM MgCl2, 1 mM EGTA, 100 mM NaCl, 0.03% CHAPS and 2 mM DTT. Compounds for testing were dissolved and serially diluted in 100% DMSO (total of 10 concentrations), then diluted 1:25 in reaction buffer.
PI3K beta and gamma enzymatic activity was determined by measuring the amount of ADP produced following the kinase reaction using a luciferase-based luminescence assay (ADP Glo®, Promega Corp., Madison, WI, USA). PI3K enzyme solutions were prepared by diluting PI3K beta (Millipore, Billerica, MA, USA) or PI3K gamma (Invitrogen Corp., Carlsbad, CA, USA) in reaction buffer, to 4× the final assay concentration (final concentrations of enzymes were 4.8 nM and 7.6 nM for PI3K beta and PI3K gamma respectively). A substrate solution was prepared by mixing PIP2 and ATP in reaction buffer at 2× the final assay concentration (final concentrations were 50 μM and 25 μM for PIP2 and ATP respectively). 2.5 μL each of the compound and kinase mixtures were added to individual wells of white low volume 384-well assay plates and mixed by shaking. The reactions were started by adding 5 μL of substrate mixture per well and shaking. The assay plates were covered and reactions were allowed to proceed for 1 hour. Then, 5 μL of reaction mix was transferred to another white low volume 384-well plate, and 5 μL of ADP-Glo™ reagent was added. The plates were briefly centrifuged and incubated for 40 minutes, after which 10 μL of kinase detection buffer was added. The plates then were centrifuged briefly, shaken slowly and equilibrated at room temperature for 30 minutes, after which luminescence was measured using a FlexStation plate reader (Molecular Devices, Sunnyvale, CA, USA). IC50 values were determined by curve fitting using Graphpad Prism software (Graphpad Software, La Jolla, CA, USA).

[2] = molecular target: T2, PI3K delta (Homo sapiens, UniProt O00329); assay: Luciferase-based luminescence assay (KinaseGlo), PI3K delta enzymatic activity; type: biochemical; conditions: for IC50: inhibition of enzymatic activity, KinaseGlo, 25 μM ATP, read-out: IC50 p110δ; for α/δ ratio: ratio of enzymatic IC50 against PI3Kα over IC50 against PI3Kδ; for β/δ ratio / γ/δ ratio: ratio of enzymatic IC50 values, Table 1
T2 construct: purchased Millipore, Billerica, MA, USA
Method: as §1
PI3K alpha and PI3K delta enzymatic activity was determined by measuring the amount of ATP consumed following the kinase reaction using a luciferase-based luminescence assay (KinaseGlo®, Promega Corp., Madison, WI, USA). PI3K enzyme solutions were prepared by diluting PI3K alpha (Invitrogen Corp., Carlsbad, CA, USA) or PI3K delta (Millipore, Billerica, MA, USA) in reaction buffer, to 4× the final assay concentration (final concentrations of enzymes were 1.65 nM and 6.86 nM for PI3K alpha and PI3K delta, respectively). A substrate solution was prepared by mixing PIP2 and ATP in reaction buffer at 2× the final assay concentration (final concentrations were 50 μM and 25 μM for PIP2 and ATP respectively). 2.5 μL each of the compound and kinase mixtures were added to individual wells of white low volume 384-well assay plates and mixed by shaking. The reactions were started by adding 5 μL of substrate mixture per well and shaking. The assay plates were covered and reactions were allowed to proceed for 1 hour (PI3K alpha) or 2 hours (PI3K delta), after which 10 μL of Kinase Glo® reagent was added. The plates were briefly centrifuged and incubated for 10 minutes, after which luminescence was measured using a FlexStation plate reader (Molecular Devices, Sunnyvale, CA, USA). IC50 values were determined by curve fitting using Graphpad Prism software (Graphpad Software, La Jolla, CA, USA).

T2 sequence (O00329 whole entry, species assumed): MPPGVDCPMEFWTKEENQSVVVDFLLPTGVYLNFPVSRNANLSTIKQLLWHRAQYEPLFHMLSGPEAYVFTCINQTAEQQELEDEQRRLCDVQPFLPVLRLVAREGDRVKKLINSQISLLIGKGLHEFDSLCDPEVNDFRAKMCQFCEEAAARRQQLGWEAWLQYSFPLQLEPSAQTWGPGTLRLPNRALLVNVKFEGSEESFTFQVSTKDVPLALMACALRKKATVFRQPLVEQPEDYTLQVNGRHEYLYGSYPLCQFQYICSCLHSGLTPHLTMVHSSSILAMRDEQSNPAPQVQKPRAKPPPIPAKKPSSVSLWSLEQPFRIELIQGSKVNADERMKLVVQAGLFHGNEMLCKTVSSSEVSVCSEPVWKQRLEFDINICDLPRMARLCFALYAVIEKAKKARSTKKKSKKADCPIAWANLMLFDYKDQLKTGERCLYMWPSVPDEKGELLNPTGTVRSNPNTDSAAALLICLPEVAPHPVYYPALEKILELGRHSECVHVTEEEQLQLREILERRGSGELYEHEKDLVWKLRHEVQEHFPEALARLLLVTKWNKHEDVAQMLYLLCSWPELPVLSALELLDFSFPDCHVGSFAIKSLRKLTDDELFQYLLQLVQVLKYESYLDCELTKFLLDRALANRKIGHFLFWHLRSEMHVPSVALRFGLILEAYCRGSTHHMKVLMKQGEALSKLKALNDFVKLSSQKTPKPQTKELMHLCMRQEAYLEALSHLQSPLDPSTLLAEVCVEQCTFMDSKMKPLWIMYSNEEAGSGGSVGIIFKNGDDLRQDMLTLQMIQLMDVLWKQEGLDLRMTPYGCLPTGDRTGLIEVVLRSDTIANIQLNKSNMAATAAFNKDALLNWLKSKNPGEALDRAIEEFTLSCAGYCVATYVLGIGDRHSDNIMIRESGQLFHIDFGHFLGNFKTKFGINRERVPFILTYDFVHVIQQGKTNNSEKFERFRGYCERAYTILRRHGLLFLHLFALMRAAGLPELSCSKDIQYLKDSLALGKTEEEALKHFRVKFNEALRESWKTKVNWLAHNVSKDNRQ
T2 sequence (P27986 whole entry partner, species assumed): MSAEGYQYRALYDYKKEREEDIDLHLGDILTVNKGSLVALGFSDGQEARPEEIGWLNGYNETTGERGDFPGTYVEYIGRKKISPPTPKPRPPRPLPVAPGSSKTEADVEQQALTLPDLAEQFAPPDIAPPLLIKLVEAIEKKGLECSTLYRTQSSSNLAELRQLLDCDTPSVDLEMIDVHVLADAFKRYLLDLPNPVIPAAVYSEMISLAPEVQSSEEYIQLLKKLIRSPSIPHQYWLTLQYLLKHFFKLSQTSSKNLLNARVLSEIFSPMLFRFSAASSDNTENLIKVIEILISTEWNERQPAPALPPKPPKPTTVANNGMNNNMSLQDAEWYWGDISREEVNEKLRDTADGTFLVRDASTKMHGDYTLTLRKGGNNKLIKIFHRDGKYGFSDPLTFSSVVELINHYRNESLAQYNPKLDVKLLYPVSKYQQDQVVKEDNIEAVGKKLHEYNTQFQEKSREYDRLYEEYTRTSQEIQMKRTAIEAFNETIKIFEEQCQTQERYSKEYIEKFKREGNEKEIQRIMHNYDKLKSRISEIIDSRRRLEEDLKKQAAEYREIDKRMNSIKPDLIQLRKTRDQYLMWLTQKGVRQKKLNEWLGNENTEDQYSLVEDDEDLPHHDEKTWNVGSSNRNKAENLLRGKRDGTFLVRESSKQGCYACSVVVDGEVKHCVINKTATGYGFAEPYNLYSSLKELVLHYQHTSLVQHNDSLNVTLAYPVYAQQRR
T1 sequence (P48736 whole entry, species assumed): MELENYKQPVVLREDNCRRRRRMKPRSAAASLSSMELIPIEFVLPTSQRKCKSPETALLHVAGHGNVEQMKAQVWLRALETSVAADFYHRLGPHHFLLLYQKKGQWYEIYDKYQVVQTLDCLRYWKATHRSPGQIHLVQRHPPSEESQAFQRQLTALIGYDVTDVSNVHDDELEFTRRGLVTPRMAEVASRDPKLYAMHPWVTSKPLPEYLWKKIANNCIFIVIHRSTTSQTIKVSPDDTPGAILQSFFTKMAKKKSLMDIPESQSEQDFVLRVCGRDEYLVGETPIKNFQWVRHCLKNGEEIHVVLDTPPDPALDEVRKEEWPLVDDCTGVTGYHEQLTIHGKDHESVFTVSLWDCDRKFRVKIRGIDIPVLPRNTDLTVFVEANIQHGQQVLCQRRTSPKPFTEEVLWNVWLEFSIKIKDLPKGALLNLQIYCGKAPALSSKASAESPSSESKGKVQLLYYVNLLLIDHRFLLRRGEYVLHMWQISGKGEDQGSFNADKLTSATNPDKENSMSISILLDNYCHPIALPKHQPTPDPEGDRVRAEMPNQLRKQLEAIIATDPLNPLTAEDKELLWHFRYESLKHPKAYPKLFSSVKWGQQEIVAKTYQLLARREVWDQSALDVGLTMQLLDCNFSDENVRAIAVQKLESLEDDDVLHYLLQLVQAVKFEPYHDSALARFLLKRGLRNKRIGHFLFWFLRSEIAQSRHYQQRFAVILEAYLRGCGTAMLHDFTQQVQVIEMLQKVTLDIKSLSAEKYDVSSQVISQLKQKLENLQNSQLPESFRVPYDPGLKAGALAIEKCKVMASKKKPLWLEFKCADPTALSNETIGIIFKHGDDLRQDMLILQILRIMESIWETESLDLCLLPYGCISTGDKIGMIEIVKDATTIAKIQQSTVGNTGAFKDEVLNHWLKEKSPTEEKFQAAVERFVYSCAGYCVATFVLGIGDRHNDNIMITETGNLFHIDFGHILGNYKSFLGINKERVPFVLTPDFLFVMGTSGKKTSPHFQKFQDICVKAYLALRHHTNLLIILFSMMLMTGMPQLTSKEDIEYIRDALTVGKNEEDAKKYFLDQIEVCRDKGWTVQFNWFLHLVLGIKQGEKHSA

Row | Structure (SMILES) | IC50 [1] | IC50 [2] | α/δ ratio [2] | β/δ ratio [2] | γ/δ ratio [2]
1 | CC(C)(Cc1ccccc1-c1ccccc1F)Nc1nc(N2CCOCC2)nc(-n2c(C(F)F)nc3ccccc32)n1 [Compound A59, 4-(2-(difluoromethyl)-1H-benzo[d]imidazol-1-yl)-N-(1-(2′-fluorobiphenyl-2-yl)-2-methylpropan-2-yl)-6-morpholino-1,3,5-triazin-2-amine] | > 500 nM | ≤ 100 nM | A’ | A’ | A’
2 | COc1cccc(CC(C)(C)Nc2nc(N3CCOCC3)nc(-n3c(C(F)F)nc4ccccc43)n2)c1 [Compound A21, 4-(2-(difluoromethyl)-1H-benzo[d]imidazol-1-yl)-N-(1-(3-methoxyphenyl)-2-methylpropan-2-yl)-6-morpholino-1,3,5-triazin-2-amine] | > 500 nM | ≤ 100 nM | A’ | B’ | A’
3 | CN(C)CCCc1ccccc1CC(C)(C)Nc1nc(N2CCOCC2)nc(-n2c(C(F)F)nc3ccccc32)n1 [Compound A76, 4-(2-(difluoromethyl)-1H-benzo[d]imidazol-1-yl)-N-(1-(2-(3-(dimethylamino)propyl)phenyl)-2-methylpropan-2-yl)-6-morpholino-1,3,5-triazin-2-amine] | > 500 nM | ≤ 100 nM | A’ | A’ | A’
4 | CN1CCC(c2ccccc2CC(C)(C)Nc2nc(N3CCOCC3)nc(-n3c(C(F)F)nc4ccccc43)n2)CC1 [Compound A35, 4-(2-(difluoromethyl)-1H-benzo[d]imidazol-1-yl)-N-(2-methyl-1-(2-(1-methylpiperidin-4-yl)phenyl)propan-2-yl)-6-morpholino-1,3,5-triazin-2-amine] | > 500 nM | ≤ 100 nM | A’ | A’ | A’
5 | CC(C)(Cc1ccc(F)cc1)Nc1nc(N2CCOCC2)nc(-n2c(C(F)F)nc3ccccc32)n1 [Compound A22, 4-(2-(difluoromethyl)-1H-benzo[d]imidazol-1-yl)-N-(1-(4-fluorophenyl)-2-methylpropan-2-yl)-6-morpholino-1,3,5-triazin-2-amine] | 200 to 500 nM | ≤ 100 nM | A’ | C’ | A’
6 | Cc1cccc(CC(C)(C)Nc2nc(N3CCOCC3)nc(-n3c(C(F)F)nc4ccccc43)n2)c1 [Compound A49, 4-(2-(difluoromethyl)-1H-benzo[d]imidazol-1-yl)-N-(2-methyl-1-m-tolylpropan-2-yl)-6-morpholino-1,3,5-triazin-2-amine] | 200 to 500 nM | ≤ 100 nM | A’ | D’ | C’
7 | CC(C)(Cc1ccccc1-c1ccccc1Cl)Nc1nc(N2CCOCC2)nc(-n2c(C(F)F)nc3ccccc32)n1 [Compound A61, 4-(2-(difluoromethyl)-1H-benzo[d]imidazol-1-yl)-N-(1-(6′-chlorobiphenyl-2-yl)-2-methylpropan-2-yl)-6-morpholino-1,3,5-triazin-2-amine] | > 500 nM | ≤ 100 nM | A’ | D’ | A’
8 | CCN1CCC(c2ccccc2CC(C)(C)Nc2nc(N3CCOCC3)nc(-n3c(C(F)F)nc4ccccc43)n2)CC1 [Compound A70, 4-(2-(difluoromethyl)-1H-benzo[d]imidazol-1-yl)-N-(1-(2-(1-ethylpiperidin-4-yl)phenyl)-2-methylpropan-2-yl)-6-morpholino-1,3,5-triazin-2-amine] | > 500 nM | ≤ 100 nM | A’ | A’ | A’

Now from value to compound:

Row | IC50 [1] | IC50 [2] | α/δ ratio [2] | β/δ ratio [2] | γ/δ ratio [2] | Structure (SMILES)
9 | ≤ 100 nM | ≤ 100 nM | C’ | B’ | D’ | CC(C)(Cc1c(F)cccc1F)Nc1nc(N2CCOCC2)nc(-n2c(C(F)F)nc3ccccc32)n1 [Compound A52, 4-(2-(difluoromethyl)-1H-benzo[d]imidazol-1-yl)-N-(1-(2,6-difluorophenyl)-2-methylpropan-2-yl)-6-morpholino-1,3,5-triazin-2-amine]
10 | 200 to 500 nM | ≤ 100 nM | A’ | B’ | C’ | CC(C)(Cc1ccc(F)cc1F)Nc1nc(N2CCOCC2)nc(-n2c(C(F)F)nc3ccccc32)n1 [Compound A51, 4-(2-(difluoromethyl)-1H-benzo[d]imidazol-1-yl)-N-(1-(2,4-difluorophenyl)-2-methylpropan-2-yl)-6-morpholino-1,3,5-triazin-2-amine]
11 | 100 to 200 nM | ≤ 100 nM | A’ | D’ | D’ | CC(C)(Cc1ccccc1-c1cccc(CN2CCOCC2)c1)Nc1nc(N2CCOCC2)nc(-n2c(C(F)F)nc3ccccc32)n1 [Compound A65, 4-(2-(difluoromethyl)-1H-benzo[d]imidazol-1-yl)-N-(2-methyl-1-(3′-(morpholinomethyl)biphenyl-2-yl)propan-2-yl)-6-morpholino-1,3,5-triazin-2-amine]
12 | 200 to 500 nM | ≤ 100 nM | A’ | D’ | B’ | Cc1ccccc1CC(C)(C)Nc1nc(N2CCOCC2)nc(-n2c(C(F)F)nc3ccccc32)n1 [Compound A18, 4-(2-(difluoromethyl)-1H-benzo[d]imidazol-1-yl)-N-(2-methyl-1-(o-tolyl)propan-2-yl)-6-morpholino-1,3,5-triazin-2-amine]
13 | > 500 nM | ≤ 100 nM | A’ | D’ | A’ | Cc1ccccc1-c1ccccc1CC(C)(C)Nc1nc(N2CCOCC2)nc(-n2c(C(F)F)nc3ccccc32)n1 [Compound A60, 4-(2-(difluoromethyl)-1H-benzo[d]imidazol-1-yl)-N-(2-methyl-1-(2′-methylbiphenyl-2-yl)propan-2-yl)-6-morpholino-1,3,5-triazin-2-amine]
14 | > 500 nM | ≤ 100 nM | A’ | A’ | A’ | CC(C)(Cc1ccccc1C1CCNCC1)Nc1nc(N2CCOCC2)nc(-n2c(C(F)F)nc3ccccc32)n1 [Compound A68, 4-(2-(difluoromethyl)-1H-benzo[d]imidazol-1-yl)-N-(2-methyl-1-(2-(piperidin-4-yl)phenyl)propan-2-yl)-6-morpholino-1,3,5-triazin-2-amine]
15 | 200 to 500 nM | ≤ 100 nM | A’ | D’ | A’ | Cn1cc(-c2ccccc2CC(C)(C)Nc2nc(N3CCOCC3)nc(-n3c(C(F)F)nc4ccccc43)n2)cn1 [Compound A45, 4-(2-(difluoromethyl)-1H-benzo[d]imidazol-1-yl)-N-(2-methyl-1-(2-(1-methyl-1H-pyrazol-4-yl)phenyl)propan-2-yl)-6-morpholino-1,3,5-triazin-2-amine]
16 | ≤ 100 nM | ≤ 100 nM | A’ | D’ | D’ | CC(C)(Cc1cccc2ccccc12)Nc1nc(N2CCOCC2)nc(-n2c(C(F)F)nc3ccccc32)n1 [Compound A27, 4-(2-(difluoromethyl)-1H-benzo[d]imidazol-1-yl)-N-(2-methyl-1-(naphthalen-1-yl)propan-2-yl)-6-morpholino-1,3,5-triazin-2-amine]
